pIC50: −log10 of the molar value.
molecular target: Serotonin N-acetyltransferase (Homo sapiens, UniProt Q16613); experiment: AANAT Assay; conditions: pH 6.8; 37 °C
Method: The compounds were evaluated in a human serotonin N-acetyltransferase assay.

Chain of Serotonin N-acetyltransferase (Q16613 whole entry): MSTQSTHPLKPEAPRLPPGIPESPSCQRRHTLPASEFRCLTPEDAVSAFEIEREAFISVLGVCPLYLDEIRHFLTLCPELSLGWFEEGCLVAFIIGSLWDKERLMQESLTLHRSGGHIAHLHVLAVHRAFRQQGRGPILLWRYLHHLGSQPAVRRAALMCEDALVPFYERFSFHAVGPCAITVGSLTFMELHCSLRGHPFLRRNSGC

In order of rising pIC50:
1. COc1ccc2occ(CCNC(=O)CBr)c2c1 [AANAT Inhibitor, 8c]  4.40
2. O=C(CBr)NCCc1csc2ccc(Br)cc12 [AANAT Inhibitor, 8g]  5.42
3. O=C(CBr)NCCc1c[nH]c2ccccc12  5.84
4. CCc1ccc2scc(CCNC(=O)CBr)c2c1 [AANAT Inhibitor, 8i]  6.15
5. O=C(CBr)NCCc1csc2ccccc12 [AANAT Inhibitor, 8e]  6.17
6. COc1ccc2scc(CCNC(=O)CBr)c2c1 [AANAT Inhibitor, 8d]  6.21
7. O=C(CBr)NCCc1csc2ccc(F)cc12 [AANAT Inhibitor, 8h]  6.41
8. O=C(CBr)NCCc1csc2ccc(O)cc12 [AANAT Inhibitor, 12d]  6.74

From BindingDB's records for doi:10.1080/1475636021000005721 (Universit&Eacute, 2002)
